Experimental data: article PMC10650850, “Discovery, Structure–Activity Relationship and In Vitro Anticancer Activity of Small-Molecule Inhibitors of the Protein–Protein Interactions between AF9/ENL and AF4 or DOT1L” (Cancers, 2023)
Where a name gives a salt, the structure may show the parent alone.

Each compound was assayed against T1, AF9-DOT1L interaction (Homo sapiens, UniProt P42568) (assay: AlphaLisa assay, AF9-DOT1L interaction). Conditions: not given.
T1 construct: human AF9 AHD domain (475–568); made in house; host or cells: E. coli BL21(DE3)
T1 sequence (P42568 475-568): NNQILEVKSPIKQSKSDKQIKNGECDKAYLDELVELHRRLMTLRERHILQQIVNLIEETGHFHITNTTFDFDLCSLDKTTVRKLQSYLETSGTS
Type: binding
Text: An AlphaLisa assay we previously developed was used for compound screening for inhibitors of the AF9-DOT1L interaction. The PPI takes the DOT1L-peptide coated donor beads and AF9 AHD coated acceptor beads together. The donor beads are illuminated with a laser beam (680 nm) to generate singlet oxygen radicals, which activate the adjacent acceptor beads to produce luminescence at 615 nm. When a compound can disrupt such PPI and separate the donor and acceptor beads, the highly unstable radicals are rapidly quenched by water without generating luminescence.
The cDNA for the human AF9 AHD domain (475–568) and ENL AHD domain (489–559) was synthesized (by Genscript, Piscataway, NJ, USA) and inserted into the pMAL c5X expression plasmid. The DOT1L peptide (Biotin-AHX-[…]) and AF4 peptide (Biotin-AHX-[…]) for the Alpha assay were purchased from Genscript.
Alpha assays were developed in our previous publication, using a Perkin-Elmer AlphaLisa anti-MBP kit, which contains streptavidin donor beads and anti-MBP acceptor beads. Briefly, the assay was performed using a MBP-protein (5 nM), a biotinylated peptide (40 nM), and increasing concentrations of a compound in 25 µL buffer (PBS with 0.5% BSA, pH 7.5) in 384-well plates according to the manufacturer’s protocol and measured with a Tecan SPARK microplate reader. Data were imported into Prism (version 5.0), and IC50 values from 3 independent experiments with standard deviation were obtained by using a standard dose-response curve fitting.
In the case of `Cl.O=C(NCC1CCNCC1)c1cc2ccc(-c3ccc(C(=O)N4CCC(N5CCCC5)CC4)cc3)cc2s1` [Compound 34, 6-(4-(4-(Pyrrolidin-1-yl)piperidin-1-carbonyl)phenyl)-N-(piperidin-4-ylmethyl)-benzo[b]thiophene-2-carboxamide hydrochloride], the “Inhibitory activity against the AF9-DOT1L interaction (in words)” value is reported as “inactive”.
With `Cl.O=C(NCC1CCNCC1)c1cc2ccc(-c3ccc(C(=O)N4CCC(N5CCCCC5)CC4)cc3)cc2s1` [Compound 33, 6-(4-(4-(Piperidin-1-yl)piperidin-1-carbonyl)phenyl)-N-(piperidin-4-ylmethyl)-benzo[b]thiophene-2-carboxamide hydrochloride] the “Inhibitory activity against the AF9-DOT1L interaction (in words)” value was “inactive”.

Same assay, conditions: MBP-protein 5 nM, biotinylated peptide 40 nM, 3 independent experiments with standard deviation, read-out: IC50 (μM) against the AF9-DOT1L interaction
For `O=C(NCC1CCNCC1)c1cc2ccc(Nc3ccc(N4CCCCC4)cc3)cc2s1` [Compound 35, 6-((4-(Piperidin-1-yl)phenyl)amino)-N-(piperidin-4-ylmethyl)-benzo[b]thiophene-2-carboxamide hydrochloride], the IC50 was 2.3 ± 0.2 µM.

Same assay, conditions: compound at 5 μM
“5-(4-(Tert-butyl)phenyl)-N-(piperidin-4-ylmethyl)-benzo[b]thiophene-2-carboxamide hydrochloride [Compound 55]” was tested, and the “% Inhibition at 5 μM against the AF9-DOT1L interaction” value was 45%.

Same assay, conditions: compound at 5 μM, read-out: % Inhibition at 5 μM against the AF9-DOT1L interaction
Work on `CCN(CC)c1ccc(-c2ccc3cc(C(=O)NCC4CCNCC4)sc3c2)cc1` [Compound 27, 6-(4-(Diethylamino)phenyl)-N-(piperidin-4-ylmethyl)-benzo[b]thiophene-2-carboxamide hydrochloride] yielded an inhibition at 5 µM of 25%.
`Cl.O=C(NCC1CCNCC1)c1cc2ccc(-c3ccc(C(=O)N4CCC(N5CCCC5)CC4)cc3)cc2s1` [Compound 34, 6-(4-(4-(Pyrrolidin-1-yl)piperidin-1-carbonyl)phenyl)-N-(piperidin-4-ylmethyl)-benzo[b]thiophene-2-carboxamide hydrochloride] was tested, and the inhibition at 5 µM was 5%.
For `CC(C)(C)c1cccc(-c2ccc3cc(C(=O)NCC4CCNCC4)[nH]c3c2)c1` [Compound 9, 6-(3-(tert-Butyl)phenyl)-N-(piperidin-4-ylmethyl)-1H-indole-2-carboxamide hydrochloride], the inhibition at 5 µM was 17%.
`O=C(NCC1CCNCC1)c1cc2ccc(-c3cccc(-c4ccccc4)c3)cc2o1` [Compound 68, 6-((1,1′-Biphenyl)-3-yl)-N-(piperidin-4-ylmethyl)-benzofuran-2-carboxamide hydrochloride] was tested, and the inhibition at 5 µM was 33%.
For `COc1ccc(Oc2ccc3cc(C(=O)NCC4CCNCC4)oc3c2)cc1` [Compound 76, 6-(4-Methoxylphenoxyl)-N-(piperidin-4-ylmethyl)-benzofuran-2-carboxamide hydrochloride], the inhibition at 5 µM was 24%.
For `O=C(NCC1CCNCC1)c1cc2ccc(-c3ccc(C(=O)N4CCCCCC4)cc3)cc2o1` [Compound 65, 6-(4-((Azepane-1-yl)carbonyl)phenyl)-N-(piperidin-4-ylmethyl)-benzofuran-2-carboxamide hydrochloride], the inhibition at 5 µM was 0%.
With `O=C(NCC1CCNCC1)c1c[nH]c2ccc(-c3ccc(N4CCCCC4)cc3)cc12` [Compound 23, 5-(4-(Piperidin-1-yl)phenyl)-N-(piperidin-4-ylmethyl)-1H-indole-3-carboxamide hydrochloride] the inhibition at 5 µM was 43%.
`O=C(NCC1CCNCC1)c1cc2ccc(-c3ccc(N4CCOCC4)cc3)cc2o1` [Compound 58, 6-(4-Morpholinophenyl)-N-(piperidin-4-ylmethyl)-benzofuran-2-carboxamide hydrochloride] was tested, and the inhibition at 5 µM was 40%.
Work on `Cl.O=C(NCC1CCNCC1)c1cc2ccc(-c3ccc(C(=O)N4CCC(N5CCCCC5)CC4)cc3)cc2s1` [Compound 33, 6-(4-(4-(Piperidin-1-yl)piperidin-1-carbonyl)phenyl)-N-(piperidin-4-ylmethyl)-benzo[b]thiophene-2-carboxamide hydrochloride] yielded an inhibition at 5 µM of 0%.
With `O=C(NCC1CCNCC1)c1cc2cc(-c3ccc(N4CCOCC4)cc3)ccc2[nH]1` [Compound 17] the inhibition at 5 µM was 52%.
`O=C(NCC1CCNCC1)c1cc2ccc(Oc3ccc(Oc4ccc(Cl)cc4)cc3)cc2o1` [Compound 77, 6-(4-(4-Cholorophenoxyl)phenoxyl)-N-(piperidin-4-ylmethyl)-benzofuran-2-carboxamide hydrochloride] showed an inhibition at 5 µM of 20%.
`O=C(NCC1CCNCC1)c1cc2ccc(-c3ccc(N4CCOCC4)cc3)cc2s1` [Compound 26, 6-(4-(Morpholino)phenyl)-N-(piperidin-4-ylmethyl)-benzo[b]thiophene-2-carboxamide hydrochloride] was tested, and the inhibition at 5 µM was 40%.
For `COc1ccc(-c2ccc3cc(C(=O)NCC4CCNCC4)sc3c2)cc1` [Compound 45, 6-(4-Methoxylphenyl)-N-(piperidin-4-ylmethyl)-benzo[b]thiophene-2-carboxamide hydrochloride], the inhibition at 5 µM was 43%.
`CS(=O)(=O)c1ccc(-c2ccc3cc(C(=O)NCC4CCNCC4)oc3c2)cc1` [Compound 70, 6-(4-(Methylsulfonyl)phenyl)-N-(piperidin-4-ylmethyl)-benzofuran-2-carboxamide hydrochloride] was tested, and the inhibition at 5 µM was 19%.
For `O=C(NCC1CCNCC1)c1cc2ccc(-c3ccc(CN4CCCCC4)cc3)cc2s1` [Compound 28, 6-(4-(Piperidin-1-ylmethyl)phenyl)-N-(piperidin-4-ylmethyl)-benzo[b]thiophene-2-carboxamide hydrochloride], the inhibition at 5 µM was 45%.
`O=C(NCC1CCNCC1)c1cc2ccc(-c3ccc(C(=O)N4CCCC4)cc3)cc2o1` [Compound 63, 6-(4-((Pyrrolidine-1-yl)carbonyl)phenyl)-N-(piperidin-4-ylmethyl)-benzofuran-2-carboxamide hydrochloride] gave an inhibition at 5 µM of 1%.
Compound `O=C(NCC1CCNCC1)c1cc2cc(-c3ccc(C(=O)N4CCCC4)cc3)ccc2s1` [Compound 52] has an inhibition at 5 µM of 0%.
With `O=C(NCC1CCNCC1)c1cc2ccc(-c3ccc4c(c3)OCCO4)cc2o1` [Compound 69, 6-(2,3-Dihydrobenzo[b][1,4]dioxin-6-yl)-N-(piperidin-4-ylmethyl)-benzofuran-2-carboxamide hydrochloride] the inhibition at 5 µM was 33%.
`O=C(NCC1CCNCC1)c1cc2ccc(-c3ccc(C(=O)N4CCCCC4)cc3)cc2s1` [Compound 29, 6-(4-(Piperidine-1-carbonyl)phenyl)-N-(piperidin-4-ylmethyl)-benzo[b]thiophene-2-carboxamide hydrochloride] showed an inhibition at 5 µM of 8%.
With `N#Cc1ccc(-c2ccc3cc(C(=O)NCC4CCNCC4)oc3c2)cc1` [Compound 73, 6-(4-Cyanophenyl)-N-(piperidin-4-ylmethyl)-benzofuran-2-carboxamide hydrochloride] the inhibition at 5 µM was 15%.
Work on `N#CCc1ccc(-c2ccc3cc(C(=O)NCC4CCNCC4)sc3c2)cc1` [Compound 41, 6-(4-(Cyanomethyl)phenyl)-N-(piperidin-4-ylmethyl)-benzo[b]thiophene-2-carboxamide hydrochloride] yielded an inhibition at 5 µM of ~50%.
`O=C(NCC1CCNCC1)c1cc2ccc(-c3ccc(F)cc3)cc2s1` [Compound 49, 6-(4-Fluorophenyl)-N-(piperidin-4-ylmethyl)-benzo[b]thiophene-2-carboxamide hydrochloride] gave an inhibition at 5 µM of 21%.
For `CC(C)(C)c1ccc(-c2ccc3sc(C(=O)NCC4CCNCC4)cc3c2)cc1` [Compound 54, 5-(4-(Tert-butyl)phenyl)-N-(piperidin-4-ylmethyl)-benzo[b]thiophene-2-carboxamide hydrochloride], the inhibition at 5 µM was 33%.
`CC(=O)Nc1ccc(-c2ccc3cc(C(=O)NCC4CCNCC4)sc3c2)cc1` [Compound 38, 6-(4-(Acetamido)phenyl)-N-(piperidin-4-ylmethyl)-benzo[b]thiophene-2-carboxamide hydrochloride] showed an inhibition at 5 µM of 0%.
In the case of `O=C(NCC1CCNCC1)c1cc2ccc(-c3ccc(C(=O)N4CCCCC4)cc3)cc2o1` [Compound 64, 6-(4-((Piperidine-1-yl)carbonyl)phenyl)-N-(piperidin-4-ylmethyl)-benzofuran-2-carboxamide hydrochloride], the inhibition at 5 µM is reported as 0%.
